Data: patent US20240181080A1, “METHOD FOR CONTROLLING HETEROGENEITY OF VASCULAR ENDOTHELIAL CELLS BY UTILIZING SYMPATHETIC NERVES” (priority 2021, published 2024)
Where a name gives a salt, the structure may show the parent alone.

Key:
[1] = test system: H-subtype bone vascular endothelial cells; assay: Example 1: fluorescence microscopy (CD31, EMCN) of bone vascular endothelial cells at the femoral epiphyseal end, after intraosseous hM3Dq virus and CNO injection; format: in vivo, TH-Cre transgenic mouse; conditions: hM3Dq side vs mCherry control side; CNO 1 mg/kg every 48 h for 4 weeks
Protocol: A TH-Cre transgenic mouse aged 4 weeks was selected and anesthetized, and then the skin and muscle on the femur of the mouse were carefully parted. A hole was made in the femur using a small needle to reach the marrow cavity. Using a microsyringe, 1 μL of pAAV-hSyn-DIO-hM3D(Gq)-mCherry with a viral titer of about […] was slowly injected into the long bone marrow cavity of the TH-Cre mouse on one side of the femur in the lower limb through the small hole, serving as an experimental group (recorded as hM3Dq); on the other side, pAAV-hSyn-DIO-mCherry was injected, serving as a control group (recorded as mCherry). […]
After recovery of the mouse and 6 weeks of expression of the gene carried by the virus, CNO was injected (at a dose to achieve a concentration of 1 mg/kg in the mouse) every 48 h for 4 consecutive weeks. […] Data were expressed as (Means±S.E.M.); P<0.05 was considered a significant difference.
CD31 is marked with green fluorescence, and EMCN is marked with red fluorescence; both are markers for H-subtype bone vascular endothelium. The stronger the fluorescence intensity, the more complete the vascular morphology, indicating greater expression of CD31 and EMCN, i.e., the higher number of the H-subtype bone vascular endothelial cells. […]

[2] = Example 1: microCT of the trabecular bone at the femoral epiphyseal end, after intraosseous hM3Dq virus and CNO injection; format: in vivo, TH-Cre transgenic mouse; conditions: CNO 1 mg/kg every 48 h for 4 weeks
[3] = test system: H-subtype bone vascular endothelial cells; assay: Example 2: fluorescence microscopy (CD31, EMCN) of bone vascular endothelial cells at the femoral epiphyseal end, after intraosseous hM4Di virus and CNO injection; format: in vivo, TH-Cre transgenic mouse; conditions: hM4Di side vs mCherry control side; CNO 1 mg/kg every 48 h for 4 weeks
[4] = Example 2: microCT of the trabecular bone at the femoral epiphyseal end, after intraosseous hM4Di virus and CNO injection; format: in vivo, TH-Cre transgenic mouse; conditions: CNO 1 mg/kg every 48 h for 4 weeks
[5] = test system: L-subtype vascular endothelium; conditions: aged C57BL/6J male mice; prior art; cited from earlier work
[6] = biological target: T1, hM4Di (Homo sapiens, UniProt P08173, A203G/Y113C); conditions: comparator not stated; patent notes structural similarity to clozapine; cited from earlier work
T1 sequence (P08173 1-479 Y113C/A203G): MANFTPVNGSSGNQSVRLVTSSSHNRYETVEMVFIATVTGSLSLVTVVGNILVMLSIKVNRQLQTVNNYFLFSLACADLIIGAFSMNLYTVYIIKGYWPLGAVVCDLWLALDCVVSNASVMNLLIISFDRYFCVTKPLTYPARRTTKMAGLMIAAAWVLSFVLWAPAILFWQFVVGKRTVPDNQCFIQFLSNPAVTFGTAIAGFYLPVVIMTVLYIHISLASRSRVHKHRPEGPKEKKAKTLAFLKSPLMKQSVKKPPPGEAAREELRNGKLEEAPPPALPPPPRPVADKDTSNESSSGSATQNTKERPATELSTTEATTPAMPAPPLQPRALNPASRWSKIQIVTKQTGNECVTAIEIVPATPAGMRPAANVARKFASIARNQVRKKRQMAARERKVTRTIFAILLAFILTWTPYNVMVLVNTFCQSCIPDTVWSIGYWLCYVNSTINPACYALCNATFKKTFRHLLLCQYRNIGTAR

[7] = biological target: hM3Dq (Homo sapiens, UniProt P20309, A239G/Y149C); conditions: comparator not stated; patent notes structural similarity to clozapine; cited from earlier work
Chain of hM3Dq (P20309 whole entry Y149C/A239G): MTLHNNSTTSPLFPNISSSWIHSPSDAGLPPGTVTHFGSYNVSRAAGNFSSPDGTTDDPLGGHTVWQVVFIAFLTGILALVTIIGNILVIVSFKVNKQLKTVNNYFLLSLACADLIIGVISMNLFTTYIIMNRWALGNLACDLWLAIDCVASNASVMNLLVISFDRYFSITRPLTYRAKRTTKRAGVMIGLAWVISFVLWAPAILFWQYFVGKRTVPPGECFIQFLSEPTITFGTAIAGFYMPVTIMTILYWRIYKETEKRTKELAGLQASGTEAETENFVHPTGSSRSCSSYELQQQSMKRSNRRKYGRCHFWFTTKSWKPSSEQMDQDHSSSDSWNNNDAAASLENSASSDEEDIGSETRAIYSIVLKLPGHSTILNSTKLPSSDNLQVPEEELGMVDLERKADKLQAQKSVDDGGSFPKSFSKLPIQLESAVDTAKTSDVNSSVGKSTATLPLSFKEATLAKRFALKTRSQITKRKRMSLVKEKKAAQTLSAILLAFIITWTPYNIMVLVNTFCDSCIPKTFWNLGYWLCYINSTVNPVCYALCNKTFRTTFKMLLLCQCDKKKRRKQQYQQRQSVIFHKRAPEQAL

C[N+]1([O-])CCN(C2=Nc3cc(Cl)ccc3Nc3ccccc32)CC1 [CNO, Clozapine N-oxide]
number of the H-subtype bone vascular endothelial cells near the long bone growth plate [1]: increased
sympathetic nerve activity [1]: activated
bone mass of the trabecular bone [2]: rise
number of the H-subtype bone vascular endothelial cells [3]: reduced
sympathetic nerve activity [3]: inhibited
bone mass of the trabecular bone [4]: decrease

CC(=O)N(O)CCCCCNC(=O)CCC(=O)N(O)CCCCCNC(=O)CCC(=O)N(O)CCCCCN [deferoxamine mesylate]
bone mineral density [5]: increasing
reverse transformation of L-subtype vascular endothelium into H-subtype vascular endothelium [5]: promotes

CN1CCN(C2=Nc3ccccc3Nc3ccccc32)CC1 [Deschloroclozapine]
affinity for hM4Di [6]: higher
affinity for hM3Dq [7]: higher
